Tests used:
[1] = Bioavailability of compound [1] taken orally before or after a meal; type: in vivo
blood sugar level = settings: taken orally; cited from earlier work

- bioavailability [1]: lowered
SMILES: CC(C)[C@H]1CC[C@H](C(=O)N[C@H](Cc2ccccc2)C(=O)O)CC1 [compound [1], N-(trans-4-isopropylcyclohexanecarbonyl)-D-phenylalanine]
- effect of lowering the blood sugar level (blood sugar level): excellent effect of lowering the blood sugar level

Source: patent US6641841B2, “Tablet composition” (Ajinomoto Co., Inc., priority 1996, dated 2003)
